Reference: ChEMBL document CHEMBL1154180, “Pyrazole-based arylalkyne cathepsin S inhibitors. Part II: optimization of cellular potency” (Bioorg Med Chem Lett, 2009)

Tests used:
Cathepsin S [1] = biological target: T1, Cathepsin S (Homo sapiens, UniProt P25774); experiment: Inhibition of human recombinant cathepsin S expressed in baculovirus by FRET assay
Cathepsin S [2] = biological target: T1, Cathepsin S; experiment: Inhibition of cathepsin S in human JY cells assessed as invariant chain li degradation by Western blotting; assay type: cell-based

T1 sequence (P25774 whole entry): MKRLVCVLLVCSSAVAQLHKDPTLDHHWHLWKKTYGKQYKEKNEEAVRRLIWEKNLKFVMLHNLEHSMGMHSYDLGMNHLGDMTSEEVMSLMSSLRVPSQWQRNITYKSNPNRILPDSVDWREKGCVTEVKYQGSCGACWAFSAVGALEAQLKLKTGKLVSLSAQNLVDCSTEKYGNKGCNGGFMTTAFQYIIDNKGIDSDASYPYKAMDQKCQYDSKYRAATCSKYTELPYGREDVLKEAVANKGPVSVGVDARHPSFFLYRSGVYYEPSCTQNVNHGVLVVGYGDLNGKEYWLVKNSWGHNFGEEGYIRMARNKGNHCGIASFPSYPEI

Row | IC50 (Cathepsin S [1]) | IC50 (Cathepsin S [2]) | Structure (SMILES)
1 | 600 nM | > 10000 nM | CN(Cc1ccccc1)Cc1ccc(C#Cc2cc(-c3nn(CCCN4CCOCC4)c4c3CN(S(C)(=O)=O)CC4)ccc2Cl)cc1
2 | 490 nM | 10000 nM | CS(=O)(=O)N1CCc2c(c(-c3ccc(Cl)c(C#Cc4ccc(CN)cc4)c3)nn2CCCN2CCOCC2)C1
3 | – | > 10000 nM | CS(=O)(=O)N1CCc2c(c(-c3ccc(Cl)c(C#Cc4ccc(CNC(=O)c5ccccc5)cc4)c3)nn2CCCN2CCOCC2)C1
4 | – | > 10000 nM | CS(=O)(=O)N1CCc2c(c(-c3ccc(Cl)c(C#Cc4ccc(Cl)cc4)c3)nn2CC(O)CN2CCCCC2)C1 (centres undefined)
5 | – | > 10000 nM | COC(=O)[C@@H](NCc1ccc(C#Cc2cc(-c3nn(CCCN4CCOCC4)c4c3CN(S(C)(=O)=O)CC4)ccc2Cl)cc1)c1ccccc1
6 | – | 200 nM | CS(=O)(=O)N1CCc2c(c(-c3ccc(Cl)c(C#Cc4ccc(Cl)cc4)c3)nn2C[C@@H](O)CN2CCC(C3CCNCC3)CC2)C1
7 | 420 nM | 4200 nM | CS(=O)(=O)N1CCc2c(c(-c3ccc(Cl)c(C#Cc4ccc(CNCc5ccccc5)cc4)c3)nn2CCCN2CCOCC2)C1
8 | – | 5700 nM | CS(=O)(=O)N1CCc2c(c(-c3ccc(Cl)c(C#Cc4ccc(CNCCc5ccccc5)cc4)c3)nn2CCCN2CCOCC2)C1
9 | – | 1100 nM | Cc1ccc(CNCc2ccc(C#Cc3cc(-c4nn(CCCN5CCOCC5)c5c4CN(S(C)(=O)=O)CC5)ccc3Cl)cc2)cc1
10 | 380 nM | > 10000 nM | CS(=O)(=O)N1CCc2c(c(-c3ccc(Cl)c(C#Cc4ccc(Cl)cc4)c3)nn2CC(O)CN2CCNCC2)C1 (centres undefined)
11 | 150 nM | > 10000 nM | CC(C)(C)OC(=O)N1CCN(CC(O)Cn2nc(-c3ccc(Cl)c(C#Cc4ccc(Cl)cc4)c3)c3c2CCN(S(C)(=O)=O)C3)CC1 (centres undefined)
12 | – | 10000 nM | CC(=O)N1CCC(C2CCN(C[C@H](O)Cn3nc(-c4ccc(Cl)c(C#Cc5ccc(Cl)cc5)c4)c4c3CCN(S(C)(=O)=O)C4)CC2)CC1
13 | 1300 nM | > 10000 nM | CNCc1ccc(C#Cc2cc(-c3nn(CCCN4CCOCC4)c4c3CN(S(C)(=O)=O)CC4)ccc2Cl)cc1
14 | 160 nM | > 10000 nM | CS(=O)(=O)N1CCc2c(c(-c3ccc(Cl)c(C#Cc4ccc(CNS(=O)(=O)c5ccccc5)cc4)c3)nn2CCCN2CCOCC2)C1
15 | – | 1700 nM | CS(=O)(=O)N1CCc2c(c(-c3ccc(Cl)c(C#Cc4ccc(CN[C@@H](CO)c5ccccc5)cc4)c3)nn2CCCN2CCOCC2)C1
16 | – | > 10000 nM | CC(C)(C)OC(=O)N1CCC(C2CCN(C[C@H](O)Cn3nc(-c4ccc(Cl)c(C#Cc5ccc(Cl)cc5)c4)c4c3CCN(S(C)(=O)=O)C4)CC2)CC1
17 | – | > 10000 nM | COC(=O)C1CCN(CC(O)Cn2nc(-c3ccc(Cl)c(C#Cc4ccc(Cl)cc4)c3)c3c2CCN(S(C)(=O)=O)C3)CC1 (centres undefined)
18 | – | > 10000 nM | CS(=O)(=O)N1CCc2c(c(-c3ccc(Cl)c(C#Cc4ccc(Cl)cc4)c3)nn2CC(O)CN2CCC(C(N)=O)CC2)C1 (centres undefined)
19 | – | 820 nM | COc1ccc(CNCc2ccc(C#Cc3cc(-c4nn(CCCN5CCOCC5)c5c4CN(S(C)(=O)=O)CC5)ccc3Cl)cc2)cc1
20 | 100 nM | > 10000 nM | COC(=O)[C@H](NCc1ccc(C#Cc2cc(-c3nn(CCCN4CCOCC4)c4c3CN(S(C)(=O)=O)CC4)ccc2Cl)cc1)c1ccccc1
21 | 140 nM | 1500 nM | CS(=O)(=O)N1CCc2c(c(-c3ccc(Cl)c(C#Cc4ccc(CNCc5ccc(Cl)cc5)cc4)c3)nn2CCCN2CCOCC2)C1
22 | 140 nM | > 10000 nM | CS(=O)(=O)N1CCc2c(c(-c3ccc(Cl)c(C#Cc4ccc(Cl)cc4)c3)nn2CC(O)CN2CCOCC2)C1 (centres undefined)
23 | – | 1800 nM | CS(=O)(=O)N1CCc2c(c(-c3ccc(Cl)c(C#Cc4ccc(CNCc5ccc(Cl)c(Cl)c5)cc4)c3)nn2CCCN2CCOCC2)C1
24 | – | 720 nM | CN1CCC(C2CCN(C[C@H](O)Cn3nc(-c4ccc(Cl)c(C#Cc5ccc(Cl)cc5)c4)c4c3CCN(S(C)(=O)=O)C4)CC2)CC1
